Where a name gives a salt, the structure may show the parent alone. One block for each compound: values may come before it.
Tests used:
serotonin ulcer = assay: Inhibitory activity on serotonin ulcer; assay type: in vivo, SD-strain male rats; conditions: 30 min before serotonin 20 mg/kg s.c., rats
Procedure: Seven week-old SD-strain male rats (body weight 200 to 220 g) were fasted for 24 hours but water was provided freely, and then used in the following experiment. Each of the test compounds suspended in 0.5% CMC was administered to the rats either orally or intraperitoneally, and 30 minutes later, serotonin (serotonin creatinine sulfate) was subcutaneously administered to the rats in a dose of 20 mg/kg. Four hours later, the animals were sacrificed. The abdomen was cut open, and the stomach was taken out from each animal. 12 ml of 1% formalin was injected into the stomach to inflate it, and the stomach was further dipped for about 10 minutes in 1% formalin for fixation. Then, the stomach was cut open on the side of the lesser curvature, and spread on a glass plate. The area of ulcers generated in the glandular stomach was measured by using a solid microscope. The sum of the area of ulcer for each animal was used as the ulcer index. The ulcer inhibiting ratio of the test compound was calculated in accordance with the following equation. [formula] The control group was given 0.5% CMC and serotonin alone.

plasmin = molecular target: T1, plasmin (Homo sapiens, UniProt P00747); assay: Antiplasmin activity (clot lysis time, fibrinogen/urokinase/thrombin); assay type: biochemical
T1 construct: fibrin clot lysis, native
Procedure: Human fibrinogen was dissolved in a phosphate-buffered physiological saline (PBS) at a pH of 7.4 to prepare a 0.2% solution. Urokinase and thrombin were dissolved similarly in PBS to prepare a solution containing 120 units of urokinase and 50 units of thrombin per ml. […] Then, 0.1 ml of the urokinase-thrombin mixed solution was added, and a microchronometer was started. One minute after the starting of the microchronometer, a glass ball having a diameter of 8 mm was put on the coagulated surface, and the incubation was continued. The time which elapsed from the dissolution of the coagulated mass until the glass ball dropped onto the bottom of the test tube was measured. As a control, PBS alone was added.

thrombin = assay: Antithrombin activity (recalcification time of plasma); conditions: rabbit plasma
Procedure: Citrated blood (3.5% sodium citrate: blood=1:9) was drawn from a white native male rabbit (3 to 3.5 kg in body weight). The blood was centrifuged at 3000 rpm to prepare plasma which was used in the following experiment. One milliliter of the plasma was put in a small test tube having an inside diameter of 12 mm, and incubated at 37° C. Then, 0.1 ml of each of the test compounds, dissolved in PBS, was added, and the mixture was further incubated at 37° C. for 2 minutes. Then, 0.2 ml of 0.02 M CaCl2 was added, and a microchronometer was started. While occasionally shaking the test tube, the time which elapsed until the plasma coagulated was measured. As a control, PBS was used.

indomethacin ulcer = assay: Inhibitory activity on indomethacin ulcer; assay type: in vivo, SD-strain male rats; conditions: 400 mg/kg oral, 30 min before indomethacin 20 mg/kg oral, rats
Procedure: Seven week-old SD-strain male rats (body weight 200 to 220 g) were fasted for 24 hours but water was provided freely, and then used in the following experiment.
Each of the test compounds suspended in 0.5% CMC was orally administered to the rats, and 30 minutes later, indomethacin was orally administered in a dose of 20 mg/kg. Six hours later, the animals were sacrificed. The abdomen was cut open, and the stomach was removed. 1% Evan's blue was injected in an amount of 0.5 ml/rat into the rats through the tail vein under ether anesthesia 10 minutes before sacrificing.
12 ml of a 1% formalin was injected into the stomach and the stomach was further dipped in 1% formalin for about 10 minutes for the fixation. The stomach was cut open on the side of the greater curvature, and spread on a glass plate. The lengths of ulcers generated in the glandular stomach were measured by using a solid microscope. The sum of the lengths of the ulcers for each animal was used as the ulcer index. The ulcer inhibiting ratio of the test compound was calculated in accordance with the following equation. [formula]
The control group was given 0.5% CMC and indomethacin alone.

gastric secretion = assay: Inhibitory activity on gastric secretion (pylorus ligation); assay type: in vivo, male rats; conditions: for Amount of gastric juice: 4 hours after pylorus ligation, control 6.8 ± 0.6, in ml (unit assumed); for Acidity: control 109.1 ± 1.7
Procedure: Seven week-old DS-strain male rats (body weight 200 to 220 g) were fasted for 24 hours but water was provided freely, and then used in the following experiment.
The rats were anesthetized with ether. The abdomen was cut open along the median line to expose the pylorus. Then, the pylorus was ligated. After ligation, each of the test compounds dissolved in physiological saline was intraperitoneally administered to the animals. The abdomen was sutured, and after confirming that the animals recovered from ether anesthesia, they were kept in a wire cage while being deprived of food and water. Four hours later, the animals were killed by using ether. The abdomen was again cut open, and the stomach was removed. The gastric juice was collected, and its volume and acidity was measured. The acidity of the gastric juice was determined by titrating with 0.05 N sodium hydroxide using phenolphthalein as an indicator, and calculating the amount of sodium hydroxide required to neutralize the gastric juice which is estimated as the acidity of the gastric juice.
The control group was given physiological saline alone.
For the method of studying the inhibitory activity on the gastiic secretion, reference may be made to H. Shay, S. A. Komoroe, S. S. Fels, M. Meraze, M. Gruestein and H. Siplet: Gastroent., 5, 43 (1945), and M. L. Anson: J. Gen, Physiol., 21, 79 (1938).

[1] = 10^-3 M, first series, control 391.7 ± 16.1
[2] = 10^-4 M, first series, control 391.7 ± 16.1
[3] = 5 × 10^-3 M, second series, control 103.3 ± 7.6
[4] = 5 × 10^-4 M, second series, control 103.3 ± 7.6
[5] = 10^-3 M, second series, control 556.7 ± 12.6
[6] = 10^-4 M, second series, control 556.7 ± 12.6

T1 sequence (P00747 97-810): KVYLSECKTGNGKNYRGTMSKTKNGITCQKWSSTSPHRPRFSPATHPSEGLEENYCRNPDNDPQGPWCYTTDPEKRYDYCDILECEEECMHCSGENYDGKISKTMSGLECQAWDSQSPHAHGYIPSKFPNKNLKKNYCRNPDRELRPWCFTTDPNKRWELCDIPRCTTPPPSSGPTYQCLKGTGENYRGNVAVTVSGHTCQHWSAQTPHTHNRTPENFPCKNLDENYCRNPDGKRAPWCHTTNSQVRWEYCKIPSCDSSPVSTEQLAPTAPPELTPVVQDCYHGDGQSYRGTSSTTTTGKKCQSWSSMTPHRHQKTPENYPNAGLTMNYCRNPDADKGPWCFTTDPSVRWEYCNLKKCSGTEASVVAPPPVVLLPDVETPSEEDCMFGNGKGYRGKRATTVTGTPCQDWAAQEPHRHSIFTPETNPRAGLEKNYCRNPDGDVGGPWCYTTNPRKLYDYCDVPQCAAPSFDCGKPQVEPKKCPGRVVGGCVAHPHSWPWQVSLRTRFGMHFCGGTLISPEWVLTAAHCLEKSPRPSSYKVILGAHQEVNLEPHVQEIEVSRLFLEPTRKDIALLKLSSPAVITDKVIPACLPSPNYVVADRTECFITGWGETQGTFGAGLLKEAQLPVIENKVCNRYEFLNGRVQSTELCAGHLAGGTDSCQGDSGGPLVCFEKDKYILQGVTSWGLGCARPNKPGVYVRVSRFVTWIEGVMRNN

Compound: Cl.NCCCCCC(=O)c1ccc(CCC(=O)O)cc1 [(102) hydrochloride, 3-[p-(ε-aminocaproyl)phenyl]propionic acid hydrochloride]
Ulcer inhibiting ratio (serotonin ulcer; 100 mg/kg intraperitoneal): 76.2%
Clot lysis time (plasmin; [1]): 476.7 s
Clot lysis time (plasmin; [2]): 423.3 s
Recalcification time (thrombin; [3]): 67.0 s
Recalcification time (thrombin; [4]): 98.3 s

Compound: Cl.NCc1ccc(C(=O)c2ccc(CCC(=O)O)cc2)cc1 [(112) hydrochloride, 3-[p-(4-aminomethylbenzoyl)phenyl]propionic acid hydrochloride]
Ulcer inhibiting ratio (serotonin ulcer; 200 mg/kg oral): 95.6%

Compound: CCOC(=O)CCc1ccc(C(=O)CCCCCN)cc1 [(121) hydrochloride, ethyl 3-[p-ε-aminocaproyl)phenyl]propionate hydrochloride]
Ulcer inhibiting ratio (serotonin ulcer; 100 mg/kg oral): 72.3%
Ulcer inhibiting ratio (indomethacin ulcer): 89.7%
Inhibition ratio (acidity) (gastric secretion; 50 mg/kg i.p.): 48.9%
Inhibition ratio (amount of gastric juice) (gastric secretion; 50 mg/kg i.p.): 77.9%
Amount of gastric juice (gastric secretion; 50 mg/kg i.p.): 1.5 ± 0.4
Acidity (gastric secretion; 50 mg/kg i.p.): 55.7 ± 9.3 μeq./ml
Inhibition ratio (acidity) (gastric secretion; 100 mg/kg i.p.): 58.9%
Inhibition ratio (amount of gastric juice) (gastric secretion; 100 mg/kg i.p.): 94.1%
Amount of gastric juice (gastric secretion; 100 mg/kg i.p.): 0.4 ± 0.1
Acidity (gastric secretion; 100 mg/kg i.p.): 44.8 ± 5.0 μeq./ml
Inhibition ratio (acidity) (gastric secretion; 200 mg/kg i.p.): 74.4%
Inhibition ratio (amount of gastric juice) (gastric secretion; 200 mg/kg i.p.): 94.1%
Amount of gastric juice (gastric secretion; 200 mg/kg i.p.): 0.4 ± 0.1
Acidity (gastric secretion; 200 mg/kg i.p.): 27.9 ± 4.4 μeq./ml
Clot lysis time (plasmin; [5]): 670.0 s
Clot lysis time (plasmin; [6]): 543.3 s
Recalcification time (thrombin; [3]): 96.0 s

Compound: NCCCCCC(O)c1ccc(CCC(=O)O)cc1 (stereo not shown) [(302), 3-[p-(6-amino-1-hydroxyhex-1-yl)phenyl]-propionic acid]
Ulcer inhibiting ratio (serotonin ulcer; 100 mg/kg oral): 68.1%
Clot lysis time (plasmin; [5]): 736.7 s
Clot lysis time (plasmin; [6]): 521.7 s
Recalcification time (thrombin; [3]): 82.7 s

Compound: NCC1CCC(C(=O)Oc2ccc(CCC(=O)O)cc2)CC1 (stereo not shown) [drawing 47, reference compound]
Ulcer inhibiting ratio (serotonin ulcer; 100 mg/kg oral): 17.5%
Ulcer inhibiting ratio (serotonin ulcer; 300 mg/kg oral): 73.8%

Compound: NCC1CCC(C(=O)Oc2ccc(CCC(=O)O)cc2)CC1 (stereo not shown) [drawing 52, reference compound]
Inhibition ratio (acidity) (gastric secretion; 200 mg/kg i.p.): 52.5%
Inhibition ratio (amount of gastric juice) (gastric secretion; 200 mg/kg i.p.): 72.1%
Amount of gastric juice (gastric secretion; 200 mg/kg i.p.): 1.9 ± 0.6
Acidity (gastric secretion; 200 mg/kg i.p.): 51.8 ± 10.0 μeq./ml
Inhibition ratio (acidity) (gastric secretion; 400 mg/kg i.p.): 70.3%
Inhibition ratio (amount of gastric juice) (gastric secretion; 400 mg/kg i.p.): 86.8%
Amount of gastric juice (gastric secretion; 400 mg/kg i.p.): 0.9 ± 0.2
Acidity (gastric secretion; 400 mg/kg i.p.): 32.4 ± 2.4 μeq./ml

Compound: NCC1CCC(C(=O)Oc2ccc(CCC(=O)O)cc2)CC1 (stereo not shown) [drawing 58, reference compound]
Recalcification time (thrombin; 5 × 10^-4 M, first series, […]): 122.7 ± 2.5 s
Recalcification time (thrombin; 5 × 10^-5 M, first series, […]): 115.3 ± 1.2 s

Compound: NCC1CCC(C(=O)Oc2ccc(CCC(=O)O)cc2)CC1 (stereo not shown) [drawing 60, reference compound]
Recalcification time (thrombin; 5 × 10^-5 M, second series, control 103.3 ± 7.6): 144.0 ± 2.6 s
Recalcification time (thrombin; 5 × 10^-6 M, second series, control 103.3 ± 7.6): 114.7 ± 2.5 s

The next lines start with results.

Clot lysis time (plasmin; [1]): 546.7 s
Clot lysis time (plasmin; [2]): 411.7 s
Compound: Cl.NC[C@H]1CC[C@H](C(O)c2ccc(CCC(=O)O)cc2)CC1 (relative stereo) [trans (307) hydrochloride, 3-[p-(trans-4-aminomethylcyclohexylhydroxymethyl)phenyl]propionic acid hydrochloride]
Ulcer inhibiting ratio (serotonin ulcer; 100 mg/kg intraperitoneal): 68.7%
Recalcification time (thrombin; [3]): 80.7 s
Recalcification time (thrombin; [4]): 104.0 s

Clot lysis time (plasmin; [1]): > 1800 s
Clot lysis time (plasmin; [2]): > 1800 s
Clot lysis time (plasmin; 10^-5 M, first series, control 391.7 ± 16.1): 1045.0 ± 13.2 s
Clot lysis time (plasmin; 10^-6 M, first series, control 391.7 ± 16.1): 441.7 ± 21.8 s
Compound: NCC1CCC(C(=O)Oc2ccc(CCC(=O)O)cc2)CC1 (stereo not shown) [drawing 54, reference compound]

Clot lysis time (plasmin; 10^-5 M, second series, control 556.7 ± 12.6): 1398 ± 53.0 s
Clot lysis time (plasmin; 10^-6 M, second series, control 556.7 ± 12.6): 600.0 ± 37.7 s
Compound: NCC1CCC(C(=O)Oc2ccc(CCC(=O)O)cc2)CC1 (stereo not shown) [drawing 56, reference compound]

Source: patent publication US4402975A, “Aminocarboxylic acids, amino alcohols, or the derivatives thereof, processes for production thereof, and pharmaceutical uses thereof” (Teijin Limited, priority 1980, dated 1983)
